Data as given in US20060029644A1, “In vitro biochemical reactions with free anhydrous D-ribose” (priority 2004, published 2006).
Entries after “also recorded” stand apart in the source; their conditions may differ.

Assays:
[1] = stability of the powder on heating; type: physicochemical; conditions: for stability of the powder when heated: 150° F., heated alone or mixed with each other
[2] = taken in 20 grams or less a day; cited from earlier work
solubility in water = type: physicochemical

## O=C[C@H](O)[C@H](O)[C@H](O)CO [anhydrous D-ribose]
[1]
  temperature to which the powder can be heated without losing its powdery form: < 120 ° F.
  stability of the powder when heated: unstable
[2]
  toxicity: extremely low toxicity

## OC[C@H]1O[C@@](CO)(O[C@H]2O[C@H](CO)[C@@H](O)[C@H](O)[C@H]2O)[C@@H](O)[C@@H]1O [sucrose, reference compound]
[1]
  stability of the powder when heated: remain powders

## O=C(CO)[C@@H](O)[C@H](O)[C@H](O)CO [fructose, reference compound]
[1]
  stability of the powder when heated: remain powders

## OC[C@H]1O[C@@H](O[C@H]2[C@H](O)[C@@H](O)C(O)O[C@@H]2CO)[C@H](O)[C@@H](O)[C@H]1O (stereo partly drawn) [lactose, reference compound]
[1]
  stability of the powder when heated: remain powders

## O.O=C[C@H](O)[C@H](O)[C@H](O)CO [ribose monohydrate, D-ribose monohydrate]
Solubility in water; listed as monohydrate
  solubility in water: very soluble in water
Solubility in water; monohydrate
  solubility in water: highly soluble in water; also recorded: extreme solubility; also recorded: highest possible solubility in water
[1]; especially with water, sugars and some consumable monohydrates
  stability compared with the anhydrous powder: far more stable
